# Reference: PMC8955307, “Nucleobase-Derived Nitrones: Synthesis and Antioxidant and Neuroprotective Activities in an In Vitro Model of Ischemia–Reperfusion” (International Journal of Molecular Sciences, 2022)
# Tests used:
# [1] = ABTS radical cation decolorization assay; conditions: tested at 100 µM
# Description: Approximately 10 µL of the tested compounds in DMSO (100 µM final concentration) were mixed with 200 µL of ABTS∙^+ (100 mM) and 790 µL absolute ethanol. The absorbance value was recorded 1 min after mixing at 734 nm and compared to Trolox.
# [2] = tested on: SH-SY5Y human neuroblastoma cells; assay: Anti-necrotic effect: LDH release after OGD (4 h) and 24 h OGR (IR); format: cell-based; conditions: Homo sapiens, OGD 4 h + 24 h OGR (IR); for IC50: compounds 0.1 μM to 1 mM, read-out: LDH Release Inhibition IC50 ±SEM; for Emax: read-out: Maximal Inhibition Mean±SEM (LDH release)
# Description: (§1) To induce experimental ischemia, and the sub-consequent cellular damage, the neuroblastoma cultures underwent OGD for 3–4 h, maintained in a glucose-free Dulbecco’s medium inside an anaerobic chamber in the presence of a gas mixture of 95% N2/5% CO2 and humidified at 37 °C at a constant pressure of 0.15 bar. After the OGD period (4 h), medium was substituted by oxygenated 10% FCS-containing medium, and cells were incubated in conditions of normoxia for 24 h to recovery (R24h). The compounds used in the neuroprotection studies: nitrones 9a–i, α-phenyl-N-tert-butyl nitrone (PBN) and N-acetyl-L-cysteine (NAC) (0.01 μM−1000 µM), were added at the beginning of R24h as described. Concurrently, controls in the absence of the OGD procedure were performed by maintaining these cells with Dulbecco’s medium including glucose for 3–4 h in an incubator in conditions of normoxia during the OGD period; thereafter, the medium was changed, and the cells (in the presence or absence of the different study compounds) were returned to the incubator for 24 h of recovery, as described. In addition, experiments including the same amounts of vehicle (final concentration < 1% dimethyl sulfoxide) were performed, serving as controls. The effects of nitrones 9a–g were analyzed three-five times independently using different culture batches, and each experiment was carried out in triplicate.
# Anti-necrotic cell activity was evaluated by culturing SHSY5Y cells in 48-well dishes, in a density of 2 × 10^5 cells/well and treating them as controls or under the OGD-R24h procedure, adding the testing compounds at 0.01–1000 µM (see point 4.2.2.). Media of every well were collected in Eppendorf tubes properly labelled and stored at −20 °C until measurement (samples would be needed to measure extracellular NADH). Afterwards, each well was recharged with a 0.1 M Phosphate Buffer with 0.5% Triton X-100, pH 7.5, in order to scratch the cells from the bottom of the well. After a 13.000 rpm centrifugation, the soluble fractions are collected and labelled (samples would be essential to measure intracellular NADH). Finally, LDH activity was quantified as the degree of absorbance declined at 340, indicating the oxidation of NADH to NAD+ as described. Results are expressed as the LDH activity of the extracellular medium referred to the total LDH activity after cell lysis.
# [3] = Inhibition of lipid peroxidation (ILPO), AAPH protocol with sodium linoleate; conditions: tested at 100 µM
# Description: The reactants consisting of 10 µL (16 mM) sodium linoleate, 10 µL of the tested nitrones in DMSO (final concentration 100 µM), 50 µL of AAPH ([…]) as a free radical initiator, 930 µL phosphate buffer pH 7.4 (0.05 M) at 37 °C under air, were mixed and the reaction’s result (as absorbance value) was recorded at 234 nm in comparison to PBN as a reference.
# [4] = Reducing ability: interaction with DPPH; conditions: tested at 100 µM
# [5] = tested on: human neuroblastoma SH-SY5Y cells; assay: Superoxide radical production (DHE fluorescence) after OGD and 3 h OGR (IR); format: cell-based; conditions: Homo sapiens, OGD + 3 h OGR (IR); for EC50: compounds 0.1 to 1000 μM, read-out: Antioxidant Activity EC50 ± SEM (superoxide production); for Emax: read-out: Maximal Activity mean±SEM (antioxidant)
# Description: A density of 2–2.5 × 10^5 SHSY5Y cells/well was used to seed in 48-well plates to quantify superioxide anion formation. Firstly, cultured cells were exposed to OGD treatment for 3–4 h or maintained in normoxic conditions (controls). Thereafter, medium was replaced with oxygenated Dulbecco’s: Ham’s F12 medium with glucose, 1% Antibiotic-Antimycotic, 1% Gentamicin and 10% FCS. Cells were incubated in the absence (controls) or presence of indicated concentrations of the compounds of study, at 37 °C for 3 h. […] For every condition, the linear regression of fluorescence data (expressed in arbitrary fluorescence units, AFU) was calculated, and the slopes (a) of the best fitting lines (y = ax) were considered as an index of superoxide production, as described previously.
# [6] = Hydroxyl radical scavenging (competition with DMSO); conditions: tested at 100 µM
# Description: The competition of the tested nitrones (100 µM) with DMSO (33 mM) in the phosphate buffer (50 mM), pH 7.4, was used. The hydroxyl radicals were generated by the Fe^3+/ascorbic acid system (EDTA 0.1 mM, Fe^3+ 167 µM, ascorbic acid 10 mM), and the samples were incubated at 37 °C/30 min. A 17% w/v solution of CCl3CO2H was used to stop the radical propagation. The percentage scavenging activity was compared to Trolox used as a reference.
# [7] = target: T1, Soybean Lipoxygenase (SLOX) (Glycine max, UniProt P08170); assay: In vitro inhibition of soybean lipoxygenase (UV absorbance-based enzyme assay); format: biochemical; conditions: soybean LOX, sodium linoleate substrate, pH 9
# T1 sequence (P08170 1-839): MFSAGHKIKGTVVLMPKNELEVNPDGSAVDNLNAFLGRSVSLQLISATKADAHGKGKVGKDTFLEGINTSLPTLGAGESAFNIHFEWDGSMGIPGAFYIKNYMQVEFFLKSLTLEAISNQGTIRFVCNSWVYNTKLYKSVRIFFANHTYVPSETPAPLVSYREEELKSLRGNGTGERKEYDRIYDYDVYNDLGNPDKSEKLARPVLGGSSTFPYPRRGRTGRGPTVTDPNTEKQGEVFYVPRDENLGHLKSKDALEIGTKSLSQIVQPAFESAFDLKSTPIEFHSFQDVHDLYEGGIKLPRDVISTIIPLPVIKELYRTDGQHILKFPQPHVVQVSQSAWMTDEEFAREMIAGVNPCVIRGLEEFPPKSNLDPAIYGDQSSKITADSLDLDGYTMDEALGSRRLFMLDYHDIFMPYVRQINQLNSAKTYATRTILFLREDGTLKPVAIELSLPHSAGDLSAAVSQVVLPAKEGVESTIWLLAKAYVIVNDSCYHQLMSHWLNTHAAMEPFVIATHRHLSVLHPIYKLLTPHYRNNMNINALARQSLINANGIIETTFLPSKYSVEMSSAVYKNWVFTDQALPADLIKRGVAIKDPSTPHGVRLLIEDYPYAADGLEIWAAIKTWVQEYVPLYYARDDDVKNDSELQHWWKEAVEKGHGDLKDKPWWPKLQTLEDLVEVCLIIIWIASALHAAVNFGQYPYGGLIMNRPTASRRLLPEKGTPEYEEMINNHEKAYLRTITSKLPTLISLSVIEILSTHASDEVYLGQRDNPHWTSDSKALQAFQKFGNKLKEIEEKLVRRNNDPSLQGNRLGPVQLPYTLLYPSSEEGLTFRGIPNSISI
# Description: The experimental conditions followed our previously reported protocol. Sodium linoleate was used as a substrate (0.1 mM) with 0.2 mL of the saline solution of SLOX (1/9 × 10^−4 w/v) in the Tris buffer pH 9.
# [8] = tested on: SH-SY5Y human neuroblastoma cells; assay: Neuroprotection: cell viability (XTT metabolic activity) after OGD (4 h) followed by OGR (24 h) (IR); format: cell-based; conditions: Homo sapiens, OGD 4 h + OGR 24 h (IR); for Emax: 24 h, read-out: Maximal Activity mean±SEM (neuroprotection); for EC50: compounds 0.01 μM to 1 mM, read-out: Neuroprotection EC50 ± SEM
# Description: Cultures of human neuroblastoma cells from line SH-SY5Y were performed in flasks containing Dulbecco’s: Ham’s F12, 1:1 [v/v] composed of 0.5 mM sodium pyruvate, 2.5 mM GlutaMAX™; GIBCO, Life Technologies, Madrid (Spain), 3.15 mg/mL glucose, 1% Antibiotic-Antimycotic (100 ui/mL penicillin, […] streptomycin, and 0.25 mg amphotericin B), 1% Gentamicin 15 mg/mL (Sigma-Aldrich, Madrid, Spain) and 10% Fetal Calf Serum (FCS) (Gibco; Life Technologies, Madrid, Spain) as as described. For each experiment, neuroblastoma cells were digested partially with 0.25% trypsin-EDTA and seeded in plates of 96 or 48 wells with a density of 0.5–1 or 2–2.5 × 10^5 cells/well, respectively, depending on the assay. At 80% confluence of the seeded cells, medium was renewed adding 0.1–1000 µM of the compounds tested.
# as §1
# (§2) Cell viability measurements were carried out in human neuroblastoma cells SHSY5Y using 96-well culture plates, containing about 0.5–1 × 10^5 cells/well, after the OGD-R24h or control treatment including 0.01–1000 µM of the different testing compounds (nitrones 9a–g, PBN, and NAC), utilizing the Cell Proliferation Kit II (XTT), Sigma Aldrich, Madrid, Spain, which determines the culture’s metabolic capacity, as described in [21, 22]. XTT solution (0.3 mg/mL final concentration) was added to the seeded cells, incubated for 2 h at 37 °C with 5% CO2 and 95% air (v/v), and a spectrophotometer reader (Biotek Power-Wave XS microplate-reader (BioTek Instruments, Madrid, Spain) was used to register the absorbance at 450 nm (reference 650 nm) of the soluble formazan product generated. 100% viability was set by control normoxic cells treated with medium only, and control cells were added 0.001–1% DMSO in every assay.
# [9] = tested on: human neuroblastoma SH-SY5Y cells; assay: Basal neurotoxicity: cell viability under basal conditions; format: cell-based
# Description: as §2
Compound,ABTS+ (%) [1],IC50 [2],Emax [2],ILPO (%) [3],DPPH (%) [4],EC50 [5],Emax [5],OH (%) scavenging [6],IC50 [7],melting point,Emax [8],EC50 [8],Neurotoxic effects at basal level (cell viability) [9]
C/[N+]([O-])=C/Cn1ccc(=O)[nH]c1=O [9a],19%,2.57 ± 0.53 µM,100 ± 4.75%,62%,20%,0.37 ± 0.04 µM,111 ± 1.46%,no activity and No,62.5 µM,,,,
C/[N+]([O-])=C/Cn1cc(F)c(=O)[nH]c1=O [9c],5%,~1 µM,148 ± 8.8%,59%,18%,3.69 ± 0.7 µM,96.1 ± 3.03%,99%,28 µM,195 °C (dec.),,,
Cn1c(=O)c2ncn(C/C=[N+](/C)[O-])c2n(C)c1=O [9g],8%,2.66 ± 1.11 µM,,,15%,0.28 ± 0.03 µM,83 ± 1.37%,49%,33 µM,192 °C (dec.),105 ± 3.19%,,
C/[N+]([O-])=C/Cn1ccc(=O)n(C/C=[N+](/C)[O-])c1=O [9h],50%,17.6 ± 3.33 µM,126 ± 4.27%,inactive and No,82%,0.32 ± 0.06 µM,127 ± 3.12%,25%,,,115 ± 6.92%,6.15 ± 0.33 µM,
"CC(=O)N[C@@H](CS)C(=O)O [NAC, N-acetyl-L-cysteine, reference compound]",,4.64 ± 1.05 µM,99.1 ± 6.59%,,,0.97 ± 0.16 µM,126 ± 5.19%,,,,131 ± 4.85%,4.18 ± 0.52 µM,did not show any neurotoxic effects
"CC(Cc1ccc(O)c(O)c1)C(C)Cc1ccc(O)c(O)c1 (stereo not shown) [NDGA, Nordihydroguaiaretic acid, reference compound]",,,,,93%,,,,,,,,
"Cc1c(C)c2c(c(C)c1O)CCC(C)(C(=O)O)O2 (stereo not shown) [Trolox, reference compound]",91%,,,93%,,,,73%,,,,,
